Reference: ChEMBL document CHEMBL3797129, “Dysiherbols A-C and Dysideanone E, Cytotoxic and NF-κB Inhibitory Tetracyclic Meroterpenes from a Dysidea sp. Marine Sponge” (J Nat Prod, 2016)

Columns and labels:
[1] = Cytotoxicity against human NCI-H929 cells after 48 hrs by MTS assay; type: functional, cell-based; conditions: NCI-H929, 48 h
[2] = Inhibition of TNF alpha-induced NF-kappaB (unknown origin) activation in HEK293 cells after 6 hrs by luciferase reporter gene assay; type: cell-based; conditions: Homo sapiens, HEK293, 6 h

| Structure (SMILES) | IC50 [2] [µM] | IC50 [1] [µM] |
| --- | --- | --- |
| C[C@@H]1CC[C@]2(C)[C@@]3(CC[C@H](O)[C@]2(C)O)c2c(O)ccc(O)c2C[C@@]13C | 5.9 | 15 |
| C[C@@H]1CC[C@]2(C)[C@@]3(CCC[C@]2(C)O)c2c(O)ccc(O)c2C[C@@]13C | 0.49 | 0.58 |
| CC1=CCC[C@H]2[C@](C)(Cc3cc(O)ccc3O)[C@@H](C)CC[C@]12C [AVAROL] | > 10 | 3.32 |
| COc1ccc([C@@]23Oc4cc(OC)cc(OC)c4[C@]2(O)[C@H](O)[C@H](C(=O)N(C)C)[C@H]3c2ccccc2)cc1 [ROCAGLAMIDE] | 2.6 | 3.9 |

The next lines start with results.

| IC50 [2] [µM] | Structure (SMILES) | IC50 [1] [µM] |
| --- | --- | --- |
| 6.4 | C[C@@H]1CC[C@]2(C)[C@@]3(CCC(=O)[C@]2(C)O)c2c(O)ccc(O)c2C[C@@]13C | 12 |
| > 10 | C=C1CC[C@H]2[C@H]3[C@](C)(CC4=CC(=O)C=C[C@@]42O)[C@@H](C)CC[C@]13C | 25 |
